Patent publication US20080171705A1, “METHODS OF INDUCING AND TREATING VASCULAR DISEASE” (priority 2007, published 2008)

Assays:
[1] = system: apoE^−/− mice; assay: Health status, body weight and re-suturing incidence post mini-pump surgery; format: in vivo
Source text: (§1) ApoE^−/− mice (backcrossed ten times to the C57BL/6 background) were purchased from The Jackson Laboratory. The mice were kept on a twelve-hour light/twelve-hour dark regimen upon arrival. All animal experiments were approved by the IACUC of the Consumer & Personal Product Worldwide, in accordance with AAALAC guidelines. Eight week old, male apoE^−/− mice were fed a normal mouse-chow diet (RP5001; PMI Feeds Inc., St. Louis, Mo.) and acclimated for one week before switching to a pro-atherogenic high fat, high cholesterol, diet (“Western diet”, 21% fat, 0.2% cholesterol, diet No. 88137, Harlan-Teklad, Madison, Wis.) for four weeks.
(§2) Upon initiation of the pro-atherogenic diet, Alzet osmotic mini-pumps (Model 2004; ALZA Scientific Products, Mountain View, Calif.) were implanted into the apoE^−/− mice subcutaneously. The mini-pumps were loaded with angII (EMD Biosciences, San Diego, Calif.) at the delivery rate of 1,000 ng/min/kg for twenty-eight days. The mice were anesthetized using isoflurane for the implantation of the mini-pumps. Small incisions in the lower back of the neck were made and the mini-pumps were inserted into the subcutaneous space of the mice. The incisions were then closed using sterile staplers. Triple antibiotic ointment was applied to each incision post surgery. The mice on the high fat, high cholesterol diet were sacrificed by CO2 inhalation twenty-eight days post mini-pump implantation as is explained in detail subsequently.
(§3) Upon initiation of the pro-atherogenic diet and osmotic mini-pump implantation, mice were randomly assigned to four groups; namely, vehicle control, rapamycin or sirolimus 0.5 mg/kg, sirolimus 1.0 mg/kg and sirolimus 4.0 mg/kg body weight. The defined amount of sirolimus was dissolved in ethanol, brought up in a vehicle comprising 0.2 percent Sodium carboxymethylcellulose and 0.25 percent tween 80) and administrated to mice (i.p., daily).
The data is depicted as re-suturing incedince post surgery per group size. A clear increase of the suture index is observed in response to sirolimus administration in a dose dependent manner.

[2] = Sirolimus whole blood pharmacokinetics (LC-MS/MS); format: in vivo, apoE^−/− mice; settings: i.p., daily, 0.5, 1.0 and 4.0 mg/kg
Experimental: as §3
Sirolimus was quantitated using liquid-liquid extraction and reverse-phase liquid chromatography mass spectrometry (LC-MS/MS). Briefly, 100 μl of mouse whole blood sample underwent protein precipitation with 5 percent Methanol/Zinc sulfate solution containing the internal standard ascomycin. After centrifugation of the resulting solution, the liquid mixture proceeded with liquid-liquid extraction with 1-chlorobutane. The combined organic extract was then blown down to dryness and reconstituted with 50:50 Methanol:20 mM ammonium acetate solution. The samples were analyzed on API-5000 using C18 reverse-phase chromatography in Multiple Reaction Monitoring (MRM) mode using atmospheric pressure chemical ionization (APCI) approach. The calibration standard curve results for sirolimus in mouse whole blood were acceptable from 0.5 ng/ml to 10,000 ng/ml with correlation coefficient of 0.998. The percent bias for the calibration standards ranged from about […] to about 8.0 percent.
The regimen of sirolimus administration (i.p., daily, 0.5, 1.0, and 4.0 mg/kg) results in significant increase of whole blood sirolimus levels in the apoE^−/− mice within 24 hours post injection. The blood drug levels reached peak level at 1 hour post injection, dropped to approximately 30 to 40 percent at 6 hours and remained at trace level at 24 hours.

[3] = system: apoE^−/− mice; assay: Abdominal aortic adventitia lesion analysis (incidence and severity); format: in vivo; settings: 1 of 22 mice; vehicle control 30 percent, 3 of 10 mice
Source text: ApoE^−/− mice (backcrossed ten times to the C57BL/6 background) were purchased from The Jackson Laboratory. The mice were kept on a twelve-hour light/twelve-hour dark regimen upon arrival. All animal experiments were approved by the IACUC of the Consumer & Personal Product Worldwide, in accordance with AAALAC guidelines. Eight week old, male apoE^−/− mice were fed a normal mouse-chow diet (RP5001; PMI Feeds Inc., St. Louis, Mo.) and acclimated for one week before switching to a pro-atherogenic high fat, high cholesterol, diet (“Western diet”, 21% fat, 0.2% cholesterol, diet No. 88137, Harlan-Teklad, Madison, Wis.) for four weeks. […]
The abdominal aorta was subjected to abdominal aortic adventitia lesion analysis. […] Classification of the adventitia lesions was determined according to the scale based on the gross appearance of the aorta reported by Daugherty et al. Briefly, I: Dilated lumen in the supra-renal region of the aorta with no thrombus; II: Remodeled tissue in the supra-renal region that frequently contains thrombus; III: A pronounced bulbous form of type II that contains thrombus; IV: A form in which there are multiple adventitia lesions containing thrombus, some overlapping, in the suprarenal area of the aorta.

[4] = Plasma lipids (total cholesterol, triglycerides, LDL and HDL cholesterol); format: in vivo, apoE^−/− mice
Source text: as §1, §2, §3
Plasma triglyceride and total cholesterol levels were determined via an automated enzymatic technique (Equal Diagnostic Inc., Exton, Pa.). Mouse lipoproteins were separated by fast protein liquid chromatography (FPLC) analysis of plasma using 2 Superose 6 columns in series (Pharmacia Biotech Inc., Piscataway, N.J.). Aliquots of mouse plasma (100 μl) were injected onto the column, separated with a buffer containing 0.15 M NaCl, 0.01 M Na2HPO4, and 0.1 mM EDTA (pH 7.5) at a flow rate of 0.5 mL/min, and analyzed for lipids.

What does the source list for `CO[C@H]1C[C@@H]2CC[C@@H](C)[C@@](O)(O2)C(=O)C(=O)N2CCCC[C@H]2C(=O)O[C@H]([C@H](C)C[C@@H]2CC[C@@H](O)[C@H](OC)C2)CC(=O)[C@H](C)/C=C(\C)[C@@H](O)[C@@H](OC)C(=O)[C@H](C)C[C@H](C)/C=C/C=C/C=C/1C` [sirolimus]?
body weight ([1]; all 3 sirolimus treated groups, no statistical significance): trend of decreased body weight; health status ([1]; i.p., daily, 0.5, 1.0 and 4.0 mg/kg, angII infusion, high fat, high cholesterol diet): not overtly affected; re-suturing incidence post surgery (wound healing) ([1]; post mini-pump implantation, dose dependent): increased incidence of re-suturing; blood drug level at 6 hours (relative to peak level) ([2]; 6 hours post injection): 30 to 40%; blood drug level at 24 hours ([2]; 24 hours post injection): trace level; time of peak whole blood drug level post injection ([2]; whole blood): 1 h; incidence of abdominal aortic adventitia lesion [3]: 4.5%; elevation of LDL cholesterol ([4]; all sirolimus treated mice): > 60%; increase of plasma total cholesterol level vs vehicle control ([4]; i.p., daily, 0.5, 1.0 and 4.0 mg/kg, angII, Western diet, 28 days): 44 to 50%; increase of HDL cholesterol ([4]; mice receiving sirolimus): 55 to 81%; triglyceride ([4]; regardless of the dosage employed): trend of elevated triglyceride
